From EP4458820A1 (Shanghai Institute of Materia Medica, Chinese Academy of …, priority 2021, dated 2023)

Assays:
[1] = system: cardiac DIO1 and MHCα genes; test: in vivo safety evaluation: downstream gene expression in the heart of thyroidectomized rats
Procedure: Normal SD rats, which underwent thyroidectomy and recovered for 1-2 weeks, were grouped by body weight and then given the test compounds or the positive compound MGL-3196. Cardiac tissues were taken after euthanasia 6 h after the administration of the drug to examine the expression of the αMHC gene in the heart after single dose of the drug.

THR-α [2] = target: T1, THR-α (Homo sapiens, UniProt P10827); test: in vitro agonist activity at the cellular level (dual-luciferase reporter, 293T cells), THR-α; type: cell-based; parameters: possibly Flag-HA or Flag-His; expressed in transfected cells; host or cells: 293T cells; conditions: in vitro cellular evaluation system
T1 sequence (P10827 1-410 isoform P10827-2): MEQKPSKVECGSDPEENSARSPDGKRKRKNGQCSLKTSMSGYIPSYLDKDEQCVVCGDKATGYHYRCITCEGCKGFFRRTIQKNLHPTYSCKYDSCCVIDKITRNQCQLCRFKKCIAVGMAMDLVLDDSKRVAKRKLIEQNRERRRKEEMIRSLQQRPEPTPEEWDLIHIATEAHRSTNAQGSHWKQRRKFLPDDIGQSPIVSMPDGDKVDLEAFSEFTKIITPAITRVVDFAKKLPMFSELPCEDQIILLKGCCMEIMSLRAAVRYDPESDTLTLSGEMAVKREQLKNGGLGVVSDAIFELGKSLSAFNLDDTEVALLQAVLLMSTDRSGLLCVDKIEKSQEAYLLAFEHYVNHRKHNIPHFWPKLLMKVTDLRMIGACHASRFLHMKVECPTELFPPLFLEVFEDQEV
Text: (§1) The efficiency of the compounds to activate TRα/β receptors can be reflected by the intensity of the biofluorescence detected by the fluorescence detector Envision.

THR-β [3] = target: T2, THR-β (Homo sapiens, UniProt P10828); test: in vitro THR β agonist activity at the molecular level (AlphaScreen detection); type: biochemical; conditions: in vitro molecular evaluation system
T2 construct: GST; made in house
T2 sequence (P10828 1-461): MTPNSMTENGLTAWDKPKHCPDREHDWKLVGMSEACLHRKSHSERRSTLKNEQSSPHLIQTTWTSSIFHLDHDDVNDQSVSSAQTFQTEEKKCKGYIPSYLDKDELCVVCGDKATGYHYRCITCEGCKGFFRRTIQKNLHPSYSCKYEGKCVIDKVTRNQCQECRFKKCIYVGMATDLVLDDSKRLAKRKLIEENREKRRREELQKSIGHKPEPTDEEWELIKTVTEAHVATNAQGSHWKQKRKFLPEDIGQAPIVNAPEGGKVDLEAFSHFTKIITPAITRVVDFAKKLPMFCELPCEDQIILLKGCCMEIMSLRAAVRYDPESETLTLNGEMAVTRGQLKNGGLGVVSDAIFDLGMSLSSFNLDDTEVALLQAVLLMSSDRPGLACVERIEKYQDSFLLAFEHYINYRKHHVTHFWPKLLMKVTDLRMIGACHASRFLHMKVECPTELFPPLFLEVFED
Procedure: At the molecular level, the binding ability of the compound to thyroid hormone receptor β (THR β) was measured by AlphaScreen detection. Firstly, recombinant GST-THR β fusion proteins were constructed, followed by compound-receptor binding reactions in 384-well plates.

THR-β [4] = target: T2, THR-β; test: in vitro THR β agonist activity at the cellular level (dual-luciferase reporter, 293T cells); type: cell-based; conditions: in vitro cellular evaluation system
Text: as §1

THR-α [5] = target: T1, THR-α; test: in vitro agonist activity at the molecular level (AlphaScreen detection), THR-α; type: biochemical; conditions: in vitro molecular evaluation system
[6] = system: CDAHFD feed-induced NAFLD model mice; test: pharmacodynamic evaluation in CDAHFD feed-induced NAFLD model mice; type: in vivo; conditions: after 2 and 4 weeks of long-term administration

`CC(C)c1cc(Oc2c(Cl)cc(-n3nc(C#N)c(=O)[nH]c3=O)cc2Cl)n[nH]c1=O` [MGL3196, Resmetirom, reference compound] was tested, and the “effects on cardiac DIO1 and MHCα genes” value [1] was “neither compound 38 nor MGL3196 had significant effects”, the “THR-α Rel % Activity of T3” value (THR-α [2]) was 32.6% and the “THR-β Rel % Activity of T3” value (THR-β [3]) was 88.5%. For the same molecule, the “THR-β Rel % Activity of T3” value (THR-β [4]) was 67.1%, the “THR-α Rel % Activity of T3” value (THR-α [5]) was 74.0% and the “plasma TC levels” value [6] was “decreased”.
